{"source": "patent US11214594B2", "about": "“Antimicrobial peptide having synergistic antibacterial effect with antibiotics on multidrug resistant bacteria, and use thereof” (priority 2016, dated 2022)", "key": {"MDREC 1229 [1]": {"system": "MDREC 1229", "format": "cell-based, Escherichia coli", "summary_of_the_method": "(§1)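 Antibiotic MIC came from antibiotic dilutions added to bacteria (2×10^6 CFU/ml, MH medium) already combined with peptide serially diluted 2:1 from its own MIC. Swapping the roles of the two agents gave the peptide MIC.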"}, "MDREC 1229 [2]": {"system": "MDREC 1229", "assay": "MIC of antibiotic during combined treatment with antimicrobial peptide", "format": "cell-based, Escherichia coli", "summary_of_the_method": "as §1"}, "E. coli": {"system": "E. coli", "assay": "MIC of antibiotic during combined treatment with antimicrobial peptide", "format": "cell-based, Escherichia coli", "settings": "for Antibiotic MIC, Erythromycin / Antibiotic MIC, Linezolid / Antibiotic MIC, Vancomycin: E. coli", "summary_of_the_method": "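MIC values for mixed peptide plus antibiotic solutions were measured in MH medium.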"}, "B. subtilis": {"system": "B. subtilis", "assay": "microbe, parasite or virus in culture", "format": "cell-based, Bacillus subtilis", "summary_of_the_method": "(§2)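 Peptides were serially diluted twofold in Mueller-Hinton medium and combined 1:1 with bacterial suspensions prepared at 2×10^6 CFU. Readout was the minimal inhibitory concentration, i.e. the lowest concentration with no growth.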"}, "MDRST 8007": {"system": "MDRST 8007", "assay": "Minimal inhibitory concentration (MIC), single agent", "format": "cell-based, Salmonella typhimurium", "settings": "agent alone", "summary_of_the_method": "as §2"}, "[3]": {"settings": "peptide treatment concentration 1 μg/ml"}, "[4]": {"settings": "peptide treatment concentration 2 μg/ml"}, "[5]": {"settings": "peptide treatment concentration 4 μg/ml"}, "[6]": {"settings": "peptide treatment concentration 6 μg/ml"}, "[7]": {"settings": "peptide treatment concentration 8 μg/ml"}, "[8]": {"settings": "peptide treatment concentration 16 μg/ml"}, "[9]": {"settings": "peptide treatment concentration 32 μg/ml"}, "[10]": {"settings": "peptide treatment concentration 64 μg/ml"}}, "note": "Like-named read-outs stand apart in the source and are kept apart here. Where a SMILES comes first, the peptide text is derived from it. [ ]: non-standard residue; d: D form."}
{"compound": "CC[C@H](C)[C@H](NC(=O)[C@H](CCCCN)NC(=O)[C@H](Cc1c[nH]c2ccccc12)NC(=O)[C@@H](N)CCCNC(=N)N)C(=O)N[C@@H](Cc1ccccc1)C(=O)N[C@@H](CCCCN)C(=O)N[C@@H](CCCCN)C(=O)N[C@H](C(=O)N[C@H](CCCCN)C(=O)N[C@@H](CCCCN)C(=O)N[C@@H](CC(C)C)C(=O)N[C@@H](CC(C)C)C(=O)N[C@@H](Cc1c[nH]cn1)C(=O)N[C@@H](CO)C(=O)N[C@@H](Cc1ccccc1)C(=O)N[C@@H](CCCCN)C(=O)N[C@@H](CCCCN)C(=O)N[C@@H](Cc1ccccc1)C(N)=O)[C@@H](C)CC", "note": "[PapMA-15, RWK IFK KIk KLL HSF KKF-NH2] (H-RWKIFKKI[dK]KLLHSFKKF-NH2; N-terminus assumed)", "values": [{"measurement": "Peptide MIC during treatment with antibiotic", "setting": "MDREC 1229 [1]; erythromycin […] (Conc./MIC 1/2)", "value": 2, "unit": "µg/mL"}, {"measurement": "Peptide MIC during treatment with antibiotic", "setting": "MDREC 1229 [1]; linezolid 64 μg/ml (Conc./MIC 1/8)", "value": 4, "unit": "µg/mL"}, {"measurement": "Peptide MIC during treatment with antibiotic", "setting": "MDREC 1229 [1]; linezolid 512 μg/ml (Conc./MIC 1)", "value": 0, "unit": "µg/mL"}, {"measurement": "Peptide MIC during treatment with antibiotic", "setting": "MDREC 1229 [1]; linezolid […] (Conc./MIC 1/2)", "value": 1, "unit": "µg/mL"}, {"measurement": "Peptide MIC during treatment with antibiotic", "setting": "MDREC 1229 [1]; linezolid […] (Conc./MIC 1/4)", "value": 2, "unit": "µg/mL"}, {"measurement": "Peptide MIC during treatment with antibiotic", "setting": "MDREC 1229 [1]; vancomycin 512 μg/ml (Conc./MIC 1/2)", "value": 2, "unit": "µg/mL"}, {"measurement": "Peptide MIC during treatment with antibiotic", "setting": "MDREC 1229 [1]; vancomycin 1024 μg/ml (Conc./MIC 1)", "value": 1, "unit": "µg/mL"}, {"measurement": "Peptide MIC during treatment with antibiotic", "setting": "MDREC 1229 [1]; vancomycin […] (Conc./MIC 1/4)", "value": 4, "unit": "µg/mL"}, {"measurement": "Peptide MIC during treatment with antibiotic", "setting": "MDREC 1229 [1]; vancomycin […] (Conc./MIC 1/8)", "value": 8, "unit": "µg/mL"}, {"measurement": "Antibiotic MIC, Erythromycin", "setting": "MDREC 1229 [2]; [3]", "value": ">128", "unit": "µg/mL"}, {"measurement": "Antibiotic MIC, Linezolid", "setting": "MDREC 1229 [2]; [3]", "value": ">128", "unit": "µg/mL"}, {"measurement": "Antibiotic MIC, Vancomycin", "setting": "MDREC 1229 [2]; [3]", "value": ">128", "unit": "µg/mL"}, {"measurement": "Antibiotic MIC, Erythromycin", "setting": "MDREC 1229 [2]; [4]", "value": 32, "unit": "µg/mL"}, {"measurement": "Antibiotic MIC, Linezolid", "setting": "MDREC 1229 [2]; [4]", "value": 128, "unit": "µg/mL"}, {"measurement": "Antibiotic MIC, Vancomycin", "setting": "MDREC 1229 [2]; [4]", "value": ">128", "unit": "µg/mL"}, {"measurement": "Antibiotic MIC, Erythromycin", "setting": "MDREC 1229 [2]; [5]", "value": 16, "unit": "µg/mL"}, {"measurement": "Antibiotic MIC, Linezolid", "setting": "MDREC 1229 [2]; [5]", "value": 64, "unit": "µg/mL"}, {"measurement": "Antibiotic MIC, Vancomycin", "setting": "MDREC 1229 [2]; [5]", "value": ">128", "unit": "µg/mL"}, {"measurement": "Antibiotic MIC, Erythromycin", "setting": "MDREC 1229 [2]; [6]", "value": 8, "unit": "µg/mL"}, {"measurement": "Antibiotic MIC, Linezolid", "setting": "MDREC 1229 [2]; [6]", "value": 64, "unit": "µg/mL"}, {"measurement": "Antibiotic MIC, Vancomycin", "setting": "MDREC 1229 [2]; [6]", "value": 64, "unit": "µg/mL"}, {"measurement": "Antibiotic MIC, Erythromycin", "setting": "MDREC 1229 [2]; [7]", "value": 4, "unit": "µg/mL"}, {"measurement": "Antibiotic MIC, Linezolid", "setting": "MDREC 1229 [2]; [7]", "value": 32, "unit": "µg/mL"}, {"measurement": "Antibiotic MIC, Vancomycin", "setting": "MDREC 1229 [2]; [7]", "value": 32, "unit": "µg/mL"}, {"measurement": "Antibiotic MIC, Erythromycin", "setting": "MDREC 1229 [2]; [8]", "value": 1, "unit": "µg/mL"}, {"measurement": "Antibiotic MIC, Linezolid", "setting": "MDREC 1229 [2]; [8]", "value": 16, "unit": "µg/mL"}, {"measurement": "Antibiotic MIC, Vancomycin", "setting": "MDREC 1229 [2]; [8]", "value": 16, "unit": "µg/mL"}, {"measurement": "Antibiotic MIC, Erythromycin", "setting": "MDREC 1229 [2]; [9]", "value": 0, "unit": "µg/mL"}, {"measurement": "Antibiotic MIC, Linezolid", "setting": "MDREC 1229 [2]; [9]", "value": 0, "unit": "µg/mL"}, {"measurement": "Antibiotic MIC, Vancomycin", "setting": "MDREC 1229 [2]; [9]", "value": 0, "unit": "µg/mL"}, {"measurement": "Antibiotic MIC, Erythromycin", "setting": "MDREC 1229 [2]; [10]", "value": 0, "unit": "µg/mL"}, {"measurement": "Antibiotic MIC, Linezolid", "setting": "MDREC 1229 [2]; [10]", "value": 0, "unit": "µg/mL"}, {"measurement": "Antibiotic MIC, Vancomycin", "setting": "MDREC 1229 [2]; [10]", "value": 0, "unit": "µg/mL"}, {"measurement": "Synergistic effect of antibacterial activity with existing antibiotics compared with PapMA-1", "setting": "E. coli; E. coli and MDREC1229", "value": "level similar to that of the PapMA-1 peptide"}, {"measurement": "Antibiotic MIC, Erythromycin", "setting": "E. coli; erythromycin combined with peptide at 1 μg/ml", "value": 64, "unit": "µg/mL"}, {"measurement": "Antibiotic MIC, Erythromycin", "setting": "E. coli; erythromycin combined with peptide at 2 μg/ml", "value": 32, "unit": "µg/mL"}, {"measurement": "Antibiotic MIC, Erythromycin", "setting": "E. coli; erythromycin combined with peptide at 4 μg/ml", "value": 16, "unit": "µg/mL"}, {"measurement": "Antibiotic MIC, Erythromycin", "setting": "E. coli; erythromycin combined with peptide at 6 μg/ml", "value": 2, "unit": "µg/mL"}, {"measurement": "Antibiotic MIC, Erythromycin", "setting": "E. coli; erythromycin combined with peptide at 8 μg/ml", "value": 1, "unit": "µg/mL"}, {"measurement": "Antibiotic MIC, Erythromycin", "setting": "E. coli; erythromycin combined with peptide at 16 μg/ml", "value": 0.25, "unit": "µg/mL"}, {"measurement": "Antibiotic MIC, Erythromycin", "setting": "E. coli; erythromycin combined with peptide at 32 μg/ml", "value": 0, "unit": "µg/mL"}, {"measurement": "Antibiotic MIC, Erythromycin", "setting": "E. coli; erythromycin combined with peptide at 64 μg/ml", "value": 0, "unit": "µg/mL"}, {"measurement": "Antibiotic MIC, Linezolid", "setting": "E. coli; linezolid combined with peptide at 1 μg/ml", "value": ">128", "unit": "µg/mL"}, {"measurement": "Antibiotic MIC, Linezolid", "setting": "E. coli; linezolid combined with peptide at 2 μg/ml", "value": 128, "unit": "µg/mL"}, {"measurement": "Antibiotic MIC, Linezolid", "setting": "E. coli; linezolid combined with peptide at 4 μg/ml", "value": 32, "unit": "µg/mL"}, {"measurement": "Antibiotic MIC, Linezolid", "setting": "E. coli; linezolid combined with peptide at 6 μg/ml", "value": 16, "unit": "µg/mL"}, {"measurement": "Antibiotic MIC, Linezolid", "setting": "E. coli; linezolid combined with peptide at 8 μg/ml", "value": 16, "unit": "µg/mL"}, {"measurement": "Antibiotic MIC, Linezolid", "setting": "E. coli; linezolid combined with peptide at 16 μg/ml", "value": 8, "unit": "µg/mL"}, {"measurement": "Antibiotic MIC, Linezolid", "setting": "E. coli; linezolid combined with peptide at 32 μg/ml", "value": 0, "unit": "µg/mL"}, {"measurement": "Antibiotic MIC, Linezolid", "setting": "E. coli; linezolid combined with peptide at 64 μg/ml", "value": 0, "unit": "µg/mL"}, {"measurement": "Antibiotic MIC, Vancomycin", "setting": "E. coli; vancomycin combined with peptide at 1 μg/ml", "value": ">128", "unit": "µg/mL"}, {"measurement": "Antibiotic MIC, Vancomycin", "setting": "E. coli; vancomycin combined with peptide at 2 μg/ml", "value": ">128", "unit": "µg/mL"}, {"measurement": "Antibiotic MIC, Vancomycin", "setting": "E. coli; vancomycin combined with peptide at 4 μg/ml", "value": ">128", "unit": "µg/mL"}, {"measurement": "Antibiotic MIC, Vancomycin", "setting": "E. coli; vancomycin combined with peptide at 6 μg/ml", "value": 64, "unit": "µg/mL"}, {"measurement": "Antibiotic MIC, Vancomycin", "setting": "E. coli; vancomycin combined with peptide at 8 μg/ml", "value": 32, "unit": "µg/mL"}, {"measurement": "Antibiotic MIC, Vancomycin", "setting": "E. coli; vancomycin combined with peptide at 16 μg/ml", "value": 16, "unit": "µg/mL"}, {"measurement": "Antibiotic MIC, Vancomycin", "setting": "E. coli; vancomycin combined with peptide at 32 μg/ml", "value": 0, "unit": "µg/mL"}, {"measurement": "Antibiotic MIC, Vancomycin", "setting": "E. coli; vancomycin combined with peptide at 64 μg/ml", "value": 0, "unit": "µg/mL"}, {"measurement": "Minimal inhibitory concentration MIC", "setting": "B. subtilis", "value": ">128", "unit": "µg/mL"}, {"measurement": "Minimal inhibitory concentration MIC", "setting": "MDRST 8007", "value": 64, "unit": "µg/mL"}]}
